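The compound was tested at five concentrations on cells cultured in 96-well plates, with a 48-hour exposure period. GI50 = concentration required for 50% inhibition of growth.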 The source made the active and inactive calls. No stated cut-off is given here; in the data, active = GI50 up to about 1.1 µM and inactive = higher.
Tests used:
Test in all cases: NCI tumour cell line growth inhibition, 48 h
NCI-H226 = test system: NCI-H226
RXF 393 = test system: RXF 393
HCC 2998 = test system: HCC 2998
786-0 = test system: 786-0
HL-60 = test system: HL-60
CCRF-CEM = test system: CCRF-CEM
M14 = test system: M14
SN12C = test system: SN12C
CAKI-1 = test system: CAKI-1
KM12 = test system: KM12
OVCAR-8 = test system: OVCAR-8
A498 = test system: A498
SF-539 = test system: SF-539
HCT-116 = test system: HCT-116
SF-268 = test system: SF-268
K562 = test system: K562
UO-31 = test system: UO-31
DU-145 = test system: DU-145
SW-620 = test system: SW-620
SR = test system: SR

Structure (SMILES)	GI50 (NCI-H226)	GI50 (RXF 393)	GI50 (HCC 2998)	GI50 (786-0)	GI50 (HL-60)	GI50 (CCRF-CEM)	GI50 (M14)	GI50 (SN12C)	GI50 (CAKI-1)	GI50 (KM12)	GI50 (OVCAR-8)	GI50 (A498)	GI50 (SF-539)	GI50 (HCT-116)	GI50 (SF-268)	GI50 (K562)	GI50 (UO-31)	GI50 (DU-145)	GI50 (SW-620)	GI50 (SR)
CN(C)Cc1ccc(C(C)(C)C)cc1-c1cc(C(C)(C)C)ccc1CN(C)C	> 100 µM (inactive)	97.1 µM (inactive)	16 µM (inactive)	70.5 µM (inactive)	86.9 µM (inactive)	42.7 µM (inactive)	20.8 µM (inactive)	22.2 µM (inactive)	> 100 µM (inactive)	34.3 µM (inactive)	> 100 µM (inactive)	28.2 µM (inactive)	> 100 µM (inactive)	37.7 µM (inactive)	> 100 µM (inactive)	27.8 µM (inactive)	42.7 µM (inactive)	> 100 µM (inactive)	> 100 µM (inactive)	39 µM (inactive)
O=[N+]([O-])c1nccn1CCCNc1ccnc2cc(Cl)ccc12	3.27 µM (inactive)	4.26 µM (inactive)	18.2 µM (inactive)	3.76 µM (inactive)	5 µM (inactive)	5.38 µM (inactive)	4.5 µM (inactive)	3.3 µM (inactive)	> 5.93 µM (inactive)	5.37 µM (inactive)	7.4 µM (inactive)	5.08 µM (inactive)	5.48 µM (inactive)	3.47 µM (inactive)	7.48 µM (inactive)	4.24 µM (inactive)	5.4 µM (inactive)	> 7.74 µM (inactive)	4.23 µM (inactive)	2.81 µM (inactive)
C[C@]12CCC3c4ccc(O)cc4CC[C@H]3C1CC(=O)NC2=O (stereo not given in full)	> 10 µM (inactive)	> 10 µM (inactive)	> 10 µM (inactive)	> 10 µM (inactive)	> 10 µM (inactive)	> 10 µM (inactive)	> 10 µM (inactive)	> 10 µM (inactive)	> 10 µM (inactive)	> 10 µM (inactive)	> 10 µM (inactive)	> 10 µM (inactive)	> 10 µM (inactive)	> 10 µM (inactive)	> 10 µM (inactive)	> 10 µM (inactive)	> 10 µM (inactive)	> 10 µM (inactive)	> 10 µM (inactive)	> 10 µM (inactive)
CCc1nc2c(c(N(C)C)c1C(=O)OC)CCc1ccccc1-2	21.5 µM (inactive)	31.2 µM (inactive)	24.6 µM (inactive)	39.5 µM (inactive)	2.86 µM (inactive)	2.45 µM (inactive)	24 µM (inactive)	28.8 µM (inactive)	51.1 µM (inactive)	30.9 µM (inactive)	34.1 µM (inactive)	20.2 µM (inactive)	39.4 µM (inactive)	24.8 µM (inactive)	47.1 µM (inactive)	20.2 µM (inactive)	37.4 µM (inactive)	1.5 µM (inactive)	32.8 µM (inactive)	11.4 µM (inactive)
CC1c2cc(c3c(c2O)CN([C@@H](C)C2CCCCC2)CO3)C(C)c2cc(c3c(c2O)CN([C@@H](C)C2CCCCC2)CO3)C(C)c2cc(c3c(c2O)CN([C@@H](C)C2CCCCC2)CO3)C(C)c2cc1c1c(c2O)CN([C@@H](C)C2CCCCC2)CO1 (stereo not given in full)	0.979 µM (active)	2.44 µM (inactive)	1.45 µM (inactive)	1.13 µM (inactive)	0.152 µM (active)	0.34 µM (active)	2.3 µM (inactive)	0.962 µM (active)	1.6 µM (inactive)	0.838 µM (active)	1.15 µM (inactive)	2.06 µM (inactive)	1.77 µM (inactive)	1.06 µM (active)	1.33 µM (inactive)	0.369 µM (active)	1.81 µM (inactive)	1.35 µM (inactive)	0.986 µM (active)	0.197 µM (active)
O=[N+]([O-])c1ccc(Sc2c3ccccc3nc3ccccc23)cn1	> 100 µM (inactive)	31.8 µM (inactive)	45.6 µM (inactive)	2.59 µM (inactive)	10.8 µM (inactive)	2.39 µM (inactive)	8.97 µM (inactive)	18.7 µM (inactive)	5.61 µM (inactive)	33.1 µM (inactive)	15.3 µM (inactive)	> 100 µM (inactive)	8.77 µM (inactive)	3.6 µM (inactive)	20.8 µM (inactive)	2.49 µM (inactive)	15.3 µM (inactive)	13.5 µM (inactive)	3.88 µM (inactive)	3.12 µM (inactive)
C/C(=N\Nc1ccccc1Br)c1cccc(/C(C)=N/Nc2ccccc2Br)n1	> 100 µM (inactive)	19.7 µM (inactive)	> 100 µM (inactive)	84.5 µM (inactive)	> 100 µM (inactive)	> 100 µM (inactive)	> 100 µM (inactive)	> 100 µM (inactive)	49 µM (inactive)	52.6 µM (inactive)	> 100 µM (inactive)	45.9 µM (inactive)	88.5 µM (inactive)	> 100 µM (inactive)	59 µM (inactive)	39.7 µM (inactive)	> 100 µM (inactive)	> 100 µM (inactive)	> 100 µM (inactive)	> 100 µM (inactive)
CCOC(CN(C)C(=O)Nc1ccc(Cl)c(Cl)c1)OCC	> 10 µM (inactive)	> 10 µM (inactive)	> 10 µM (inactive)	> 10 µM (inactive)	> 10 µM (inactive)	> 10 µM (inactive)	> 10 µM (inactive)	> 10 µM (inactive)	> 10 µM (inactive)	> 10 µM (inactive)	> 10 µM (inactive)	> 10 µM (inactive)	> 10 µM (inactive)	> 10 µM (inactive)	> 10 µM (inactive)	> 10 µM (inactive)	> 10 µM (inactive)	> 10 µM (inactive)	> 10 µM (inactive)	> 10 µM (inactive)
CC1CNC(c2cccc(-c3nc(-c4cccc(C5=NC(C)CN5)c4)nc(N(C)C)n3)c2)=N1 (stereo not given)	1.9 µM (inactive)	3.21 µM (inactive)	1.13 µM (inactive)	1.53 µM (inactive)	2.02 µM (inactive)	0.587 µM (active)	3.5 µM (inactive)	0.948 µM (active)	18.1 µM (inactive)	1.67 µM (inactive)	2.15 µM (inactive)	2.05 µM (inactive)	0.454 µM (active)	0.491 µM (active)	2.06 µM (inactive)	0.682 µM (active)	3.77 µM (inactive)	2.09 µM (inactive)	0.721 µM (active)	0.45 µM (active)
O=C(CCOS(=O)(=O)CF)N1CCN(C(=O)CCOS(=O)(=O)CF)CC1	> 88.7 µM (inactive)	59.3 µM (inactive)	> 100 µM (inactive)	28.4 µM (inactive)	5.06 µM (inactive)	3.27 µM (inactive)	58.6 µM (inactive)	35.1 µM (inactive)	5.36 µM (inactive)	> 100 µM (inactive)	60.1 µM (inactive)	> 100 µM (inactive)	28.8 µM (inactive)	57 µM (inactive)	24.4 µM (inactive)	56.5 µM (inactive)	66.7 µM (inactive)	35.9 µM (inactive)	> 100 µM (inactive)	9.08 µM (inactive)
N=C(N)NS(=O)(=O)c1ccc(NCc2c3ccccc3nc3ccccc23)cc1	0.421 µM (active)	11.9 µM (inactive)	7.38 µM (inactive)	1.07 µM (active)	0.0679 µM (active)	0.0782 µM (active)	4.67 µM (inactive)	0.637 µM (active)	4.34 µM (inactive)	6.24 µM (inactive)	3.78 µM (inactive)	1.17 µM (inactive)	0.483 µM (active)	3.01 µM (inactive)	0.679 µM (active)	2.72 µM (inactive)	18.6 µM (inactive)	1.83 µM (inactive)	1.59 µM (inactive)	0.0363 µM (active)
Cc1nc2ccccc2n1CCc1nc2ccccc2[nH]1	31.6 µM (inactive)	> 100 µM (inactive)	> 100 µM (inactive)	> 100 µM (inactive)	> 100 µM (inactive)	> 100 µM (inactive)	> 100 µM (inactive)	> 100 µM (inactive)	> 100 µM (inactive)	> 100 µM (inactive)	> 100 µM (inactive)	> 100 µM (inactive)	> 100 µM (inactive)	> 100 µM (inactive)	> 100 µM (inactive)	> 100 µM (inactive)	> 100 µM (inactive)	> 100 µM (inactive)	> 100 µM (inactive)	> 100 µM (inactive)
CC(C)OC(=O)OCSc1ccccc1/N=C/c1cccc([N+](=O)[O-])c1	> 10 µM (inactive)	> 10 µM (inactive)	> 10 µM (inactive)	> 10 µM (inactive)	> 10 µM (inactive)	> 10 µM (inactive)	> 10 µM (inactive)	> 10 µM (inactive)	> 10 µM (inactive)	> 10 µM (inactive)	> 10 µM (inactive)	> 10 µM (inactive)	> 10 µM (inactive)	> 10 µM (inactive)	> 10 µM (inactive)	> 10 µM (inactive)	> 10 µM (inactive)	> 10 µM (inactive)	> 10 µM (inactive)	> 10 µM (inactive)
CCN(CC)CCCNc1ncc(C)c2c1c1ccc3c(O)cccc3c1n2C	3.44 µM (inactive)	1.95 µM (inactive)	0.798 µM (active)	0.789 µM (active)	0.603 µM (active)	0.392 µM (active)	4.15 µM (inactive)	2.7 µM (inactive)	0.449 µM (active)	1.52 µM (inactive)	1.43 µM (inactive)	13.6 µM (inactive)	2.11 µM (inactive)	1.05 µM (active)	2.5 µM (inactive)	1.5 µM (inactive)	7.89 µM (inactive)	1.57 µM (inactive)	0.883 µM (active)	0.282 µM (active)

Source: ChEMBL document CHEMBL1201862, “PubChem BioAssay data set” (2004)
